{"source": "patent EP2787003A1", "about": "“Antimicrobial peptide produced by marine sponge-derived Bacillus subtilis” (priority 2013, dated 2014)", "key": {"[1]": {"system": "MRSA", "assay": "Spot on lawn assay", "format": "cell-based, MRSA ST 530", "design": "key: +, clear halo of growth inhibition; ++: multiple +, increased activity as assessed visually by the increased diameter of the inhibition zone; +++: multiple +, increased activity as assessed visually by the increased diameter of the inhibition zone; ++++: multiple +, increased activity as assessed visually by the increased diameter of the inhibition zone; +++++: multiple +, increased activity as assessed visually by the increased diameter of the inhibition zone; -, no inhibition", "details": "indicator MRSA"}, "[2]": {"system": "L. monocytogenes", "assay": "Thermal stability, bioactivity by spot on lawn assay"}, "[3]": {"system": "Candida strains", "assay": "Spot on lawn assay", "format": "cell-based", "details": "any of the Candida strains", "procedure": "(§1) Antimicrobial activity of isolate MMA7 against the indicator strains was initially assessed with a deferred antagonism assay as described by Phelan et al. (2012). Subsequent testing of supernatants, crude extracts and purified compounds was carried out with a well and/or a spot on lawn assays. Essentially, 5 µl of samples were spotted onto 20 ml agar plates seeded with the indicator strain to a final OD600 of 0.015, or 30 µl aliquots were applied to a 5 mm well made on identical plates.\nThe activity of the purified peptide was tested together with its ASCE preparations, against the strains which were initially used as indicators on the colony overlay assay with the producing strain MMA7 (Table 4). […] No activity was detected against any of the Candida strains."}, "[4]": {"system": "P. aeruginosa", "assay": "Spot on lawn assay", "format": "cell-based, Pseudomonas aeruginosa PAO1", "design": "key: +, clear halo of growth inhibition; ++: multiple +, increased activity as assessed visually by the increased diameter of the inhibition zone; +++: multiple +, increased activity as assessed visually by the increased diameter of the inhibition zone; ++++: multiple +, increased activity as assessed visually by the increased diameter of the inhibition zone; +++++: multiple +, increased activity as assessed visually by the increased diameter of the inhibition zone; -, no inhibition", "details": "indicator P. aeruginosa; *activity only detected with 4 to 5 times more peptide than that used for the other indicators", "procedure": "as §1"}, "[5]": {"details": "dried pellets from 1.5 ml RP-HPLC-purified fractions"}, "[6]": {"system": "VRE", "assay": "Spot on lawn assay", "format": "cell-based, VRE EC725", "design": "key: +, clear halo of growth inhibition; ++: multiple +, increased activity as assessed visually by the increased diameter of the inhibition zone; +++: multiple +, increased activity as assessed visually by the increased diameter of the inhibition zone; ++++: multiple +, increased activity as assessed visually by the increased diameter of the inhibition zone; +++++: multiple +, increased activity as assessed visually by the increased diameter of the inhibition zone; -, no inhibition", "details": "indicator VRE"}, "[7]": {"system": "C. sporogenes", "assay": "Spot on lawn assay", "format": "cell-based, Clostridium sporogenes NCDO 1791", "design": "key: +, clear halo of growth inhibition; ++: multiple +, increased activity as assessed visually by the increased diameter of the inhibition zone; +++: multiple +, increased activity as assessed visually by the increased diameter of the inhibition zone; ++++: multiple +, increased activity as assessed visually by the increased diameter of the inhibition zone; +++++: multiple +, increased activity as assessed visually by the increased diameter of the inhibition zone; -, no inhibition", "details": "indicator C. sporogenes", "procedure": "as §1"}, "[8]": {"system": "hVISA", "assay": "Spot on lawn assay", "format": "cell-based, hVISA 35197", "design": "key: +, clear halo of growth inhibition; ++: multiple +, increased activity as assessed visually by the increased diameter of the inhibition zone; +++: multiple +, increased activity as assessed visually by the increased diameter of the inhibition zone; ++++: multiple +, increased activity as assessed visually by the increased diameter of the inhibition zone; +++++: multiple +, increased activity as assessed visually by the increased diameter of the inhibition zone; -, no inhibition", "details": "indicator hVISA"}, "[9]": {"system": "L. monocytogenes and B. cereus", "assay": "Storage stability, bioactivity by spot on lawn assay", "format": "physicochemical", "excerpt": "Untreated samples were used as controls."}, "[10]": {"system": "C. difficile", "assay": "Spot on lawn assay", "format": "cell-based, Clostridium difficile 001", "design": "key: +, clear halo of growth inhibition; ++: multiple +, increased activity as assessed visually by the increased diameter of the inhibition zone; +++: multiple +, increased activity as assessed visually by the increased diameter of the inhibition zone; ++++: multiple +, increased activity as assessed visually by the increased diameter of the inhibition zone; +++++: multiple +, increased activity as assessed visually by the increased diameter of the inhibition zone; -, no inhibition", "details": "indicator C. difficile", "procedure": "as §1"}, "[11]": {"system": "L. monocytogenes", "assay": "Mode of action: growth of the indicator in 96 well plates (optical density, cfu)", "format": "cell-based, Listeria monocytogenes EGDe", "procedure": "Initially 100 µl aliquots of a two-fold serial dilution of the MB 12h cultures CFS, ASCE and the purified peptide (approx. 150 µg ml^-1), were applied to individual wells on a 96 flat bottom multiple well plate (Sarstedt). An overnight culture of the indicator strain was diluted to an OD595 of 0.05 and 100 µl were applied to each of the wells containing the bioactive peptide. The plate was incubated at 37 °C, with agitation (200 rpm) and the optical density (595 nm) was monitored hourly. Wells where the indicator was added to water only were used as negative controls. Subsequently, 100 µl of indicator overnight cultures diluted to an OD595 of 0.05 were applied to individual wells on a 96 well plate and allowed to grow to an OD595 of 0.5-0.6. 100 µl of a two-fold serial dilutions of the CFS, the respective ASCE and purified peptide, or water, were then applied to the different wells and growth continued to be monitored hourly. At the different time points samples were taken and the number of cfu determined by plating dilutions onto appropriate agar plates."}, "[12]": {"system": "L. lactis HP", "assay": "Spot on lawn assay", "format": "cell-based, Lactococcus lactis HP", "design": "key: +, clear halo of growth inhibition; ++: multiple +, increased activity as assessed visually by the increased diameter of the inhibition zone; +++: multiple +, increased activity as assessed visually by the increased diameter of the inhibition zone; ++++: multiple +, increased activity as assessed visually by the increased diameter of the inhibition zone; +++++: multiple +, increased activity as assessed visually by the increased diameter of the inhibition zone; -, no inhibition", "details": "indicator L. lactis HP", "procedure": "as §1"}}, "data": [{"molecule": "C=C1NC(=O)[C@@H]2CSC[C@@H](NC(=O)[C@@H]3CS[C@@H](C)[C@H]4NC(=O)[C@H](Cc5ccccc5)NC(=O)[C@H](NC(=O)[C@H](CCCNC(=N)N)NC(=O)[C@@H]5CSC[C@@H](NC(=O)[C@H](CCC(N)=O)NC(=O)[C@@H](NC(=O)[C@@H](NC(=O)/C(=C/C)NC(=O)[C@H](CCCCN)NC(=O)CNC(=O)[C@@H](NC(=O)/C(=C/C)NC(=O)[C@H](C)NC(=O)[C@H](Cc6c[nH]c7ccccc67)NC(=O)C(=O)CC)[C@@H](C)CC)[C@@H](C)CC)C(C)C)C(=O)N[C@@H](C(C)C)C(=O)N[C@@H](CCCCN)C(=O)N[C@@H](CCCCN)C(=O)N5)[C@H](C)SC[C@H](NC4=O)C(=O)NCC(=O)N3)C(=O)N[C@@H](CC(C)C)C(=O)NCC(=O)N[C@H](CSC[C@@H](C(=O)N[C@@H](CC(N)=O)C(=O)O)NC(=O)[C@H](CC(N)=O)NC1=O)C(=O)N2", "note": "[Subtilomycin]", "values": [{"measurement": "Antimicrobial activity, spot on lawn assay", "setting": "[1]", "result": "+"}, {"measurement": "Activity after heat treatment", "setting": "[2]; 100 °C for 1 hr, L. monocytogenes", "result": "no activity"}, {"measurement": "Activity after heat treatment", "setting": "[2]; wide range of temperatures, including 100 °C for 30 minutes", "result": "stable"}, {"measurement": "Antimicrobial activity", "setting": "[3]", "result": "No activity"}, {"measurement": "Antimicrobial activity, spot on lawn assay", "setting": "[4]", "result": "+*"}, {"measurement": "Solubility in water", "setting": "[5]", "result": "fully soluble"}, {"measurement": "Antimicrobial activity, spot on lawn assay", "setting": "[6]", "result": "-"}, {"measurement": "Antimicrobial activity, spot on lawn assay", "setting": "[7]", "result": "+++"}, {"measurement": "Antimicrobial activity, spot on lawn assay", "setting": "[8]", "result": "+"}, {"measurement": "Activity after storage", "setting": "[9]; after 5 months storage at -20 °C and -80 °C", "result": "No activity"}, {"measurement": "Activity after storage", "setting": "[9]; stored at 4 °C and room temperature, after two weeks", "result": "lost their activity"}, {"measurement": "Period of storage with retained activity", "setting": "[9]; stored at -20 °C and -80 °C, spot on lawn against L. monocytogenes and B. cereus", "result": "up to 4 months"}, {"measurement": "Antimicrobial activity, spot on lawn assay", "setting": "[10]", "result": "-"}, {"measurement": "Nature of the inhibitory activity (mode of action)", "setting": "[11]; L. monocytogenes", "result": "bacteriolytic action"}, {"measurement": "Effect on growth of the indicator", "setting": "[11]; L. monocytogenes grown in presence of sample from the beginning of growth (T0), samples from 12 h MB cultures", "result": "completely abolish growth"}, {"measurement": "Antimicrobial activity, spot on lawn assay", "setting": "[12]", "result": "+"}]}]}
